These results are taken from patent publication US20120328565A1, “ANTIVIRAL COMPOUNDS” (priority 2011, published 2012).

This assay concerns HCV GT-1b Con1 subgenomic replicon. The assay is described as follows: HCV GT1b replicon luciferase reporter assay (2209-23 cells). The assay is classed as cell-based. Conditions: Hepatitis C virus, 2209-23 cell line (Huh-7 with GT-1b Con1 subgenomic replicon), Renilla luciferase read 72 hours after compound addition. The source says: Determination of compounds HCV GT1b inhibitory replicon activity using the replicon luciferase reporter assay
The 2209-23 cell line was developed at Roche by stable transfection of the hepatoma cell line Huh-7 with a GT-1b Con1 subgenomic bicistronic replicon as previously described. Subgenomic replicon cell line was established in cured Huh7 cells, obtained from R. Bartenschlager (J. Virol. 2003 March; 77 (5):3007-19) The GT-1a H77 subgenomic replicon vector pRLuc H771b 75 S/I, was created by replacing the non structural region of the GT-1b Con1 subgenomic replicon by the one of the H77 strain, except for the first 75 amino acids of the NS3 protein that are from GT-1b Con1 strain. (J. Virol. 2001 77:5352-59) The GT-1a pRLuc H771b 75 S/I subgenomic replicon cell line was established in cured Huh7 cells, obtained from R. Bartenschlager. (J. Virol. 2003 March; 77 (5):3007-19)
All the subgenomic replicon cell lines were cultured in Dulbecco's Modified Eagle Medium (DMEM-Glutamax™-I; Invitrogen Cat #10569-010). The medium was supplemented with 10% Fetal Bovine Serum (Invitrogen Cat #10082-147), 1% penicillin/streptomycin (Mediatech Cat #30-002-CI) and 500 μg/ml of G418 (Mediatech Cat #30-234-CI). Cells were maintained at 37° C. in a humidified 5% CO2 atmosphere.
2209-23 cells were plated at a cell density of 5000 cells per well in 96 well plates (Becton Dickinson, Cat #35 3296). Cells were plated in 90 μl of Dulbecco's Modified Eagle Medium (DMEM-Glutamax™-I), (Invitrogen Cat #10569-010) medium was supplemented with 5% Fetal Bovine Serum (Invitrogen Cat #10082-147), 1% penicillin/streptomycin (Mediatech Cat #30-002-CI). The pRluc H771b 75 S/I cells were plated in 96-well plate at 3000 cells/well in DMEM-Glutamax™-I containing 5% FBS and 1% penicillin/streptomycin in 90 μl final volume. Cells were allowed to equilibrate for 24 hours at 37° C. and 5% CO2 at which time compounds were added. Compounds (or medium as a control) were added 24 hours post-plating in 3 fold dilutions at a final DMSO concentration of 1% in 10 ul volume. Renilla luciferase reporter signal was read 72 hours after addition of compounds using the Renilla Luciferase Assay System (Promega, cat #E2820). EC50 values were defined as the compound concentration at which a 50% reduction in the levels of renilla luciferase reporter was observed as compared to control samples in the absence of compound and was determined by non-linear fitting of compound dose-response data. The EC50 was approximated if maximum percentage inhibition was less than 90% and more than 70%.
On the technique in general: Replicon systems follow genome replication, usually without infectious particles.
For `COC(=O)N[C@H](C(=O)N1CCC[C@H]1C(=O)NC(=O)Nc1ccc(-c2ccc(-c3cnc([C@@H]4CCCN4C(=O)[C@@H](NC(=O)OC)C(C)C)[nH]3)cc2)cc1)C(C)C` [Compound I-1, ((S)-1-{(S)-2-[3-(4′-{2-[(S)-1-((S)-2-Methoxycarbonylamino-3-methyl-butyryl)-pyrrolidin-2-yl]-3H-imidazol-4-yl}-biphenyl-4-yl)-ureidocarbonyl]-pyrrolidine-1-carbonyl}-2-methyl-propyl)-carbamic acid methyl ester], the IC50 (usually the midpoint of a concentration-inhibition curve) stood at 0.463 nM.

`COC(=O)N[C@H](C(=O)N1CCC[C@H]1C(=O)NC(=O)Nc1cccc(-c2ccc(-c3cnc([C@@H]4CCCN4C(=O)[C@@H](NC(=O)OC)C(C)C)[nH]3)cc2)c1)C(C)C` [Compound I-2, ((S)-1-{(S)-2-[3-(4′-{2-[(S)-1-((S)-2-Methoxycarbonylamino-3-methyl-butyryl)-pyrrolidin-2-yl]-3H-imidazol-4-yl}-biphenyl-3-yl)-ureidocarbonyl]-pyrrolidine-1-carbonyl}-2-methyl-propyl)-carbamic acid methyl ester]: the IC50 is 8.42 nM.

With `COC(=O)N[C@H](C(=O)N1CCC[C@H]1c1ncc(-c2ccc(-c3ccc(NC(=O)NC(=O)[C@@H]4CCCN4C(=O)[C@H](NC(=O)OC)c4ccccc4)cc3)cc2)[nH]1)C(C)C` [Compound I-3, ((S)-1-{(S)-2-[5-(4′-{3-[(S)-1-((R)-2-Methoxycarbonylamino-2-phenyl-acetyl)-pyrrolidine-2-carbonyl]-ureido}-biphenyl-4-yl)-1H-imidazol-2-yl]-pyrrolidine-1-carbonyl}-2-methyl-propyl)-carbamic acid methyl ester], the IC50 stood at 0.009 nM.

`COC(=O)N[C@H](C(=O)N1CCC[C@H]1c1ncc(-c2ccc(-c3ccc(NC(=O)NC(=O)[C@@H]4CCCN4C(=O)[C@@H](c4ccccc4)N(C)C)cc3)cc2)[nH]1)C(C)C` [Compound I-4, ((S)-1-{(S)-2-[5-(4′-{3-[(S)-1-((R)-2-Dimethylamino-2-phenyl-acetyl)-pyrrolidine-2-carbonyl]-ureido}-biphenyl-4-yl)-1H-imidazol-2-yl]-pyrrolidine-1-carbonyl}-2-methyl-propyl)-carbamic acid methyl ester] returned an IC50 of 0.007 nM.

Take `COC(=O)N[C@H](C(=O)N1CCC[C@H]1C(=O)NC(=O)NCc1ccc(-c2ccc(-c3cnc([C@@H]4CCCN4C(=O)[C@@H](NC(=O)OC)C(C)C)[nH]3)cc2)cc1)C(C)C` [Compound I-5, ((S)-1-{(S)-2-[5-(4′-{3-[(S)-1-((S)-2-Methoxycarbonylamino-3-methyl-butyryl)-pyrrolidine-2-carbonyl]-ureidomethyl}-biphenyl-4-yl)-1H-imidazol-2-yl]-pyrrolidine-1-carbonyl}-2-methyl-propyl)-carbamic acid methyl ester]: the IC50 came to 1.98 nM.

`COC(=O)N[C@H](C(=O)N1CCC[C@H]1c1ncc(-c2ccc(-c3ccc(CNC(=O)NC(=O)[C@@H]4CCCN4C(=O)[C@H](NC(=O)OC)c4ccccc4)cc3)cc2)[nH]1)C(C)C` [Compound I-6, ((S)-1-{(S)-2-[5-(4′-{3-[(S)-1-((R)-2-Methoxycarbonylamino-2-phenyl-acetyl)-pyrrolidine-2-carbonyl]-ureidomethyl}-biphenyl-4-yl)-1H-imidazol-2-yl]-pyrrolidine-1-carbonyl}-2-methyl-propyl)-carbamic acid methyl ester]: it took 6.74 nM to reach half-maximal inhibition (IC50).

On to `COC(=O)N[C@H]1CCC(=O)N2CCC[C@@H](c3ncc(-c4ccc(-c5ccc(NC(=O)NC(=O)[C@@H]6CCCN6C(=O)[C@H](NC(=O)OC)c6ccccc6)cc5)cc4)[nH]3)N2C1=O` [Compound I-7, {(4S,7S)-4-[5-(4′-{3-[(S)-1-((R)-2-Methoxycarbonylamino-2-phenyl-acetyl)-pyrrolidine-2-carbonyl]-ureido}-biphenyl-4-yl)-1H-imidazol-2-yl]-6,10-dioxo-octahydro-pyridazino[1,2-a][1,2]diazepin-7-yl}-carbamic acid methyl ester], for which half-maximal inhibition (IC50) required 0.427 nM.

`COC(=O)N[C@H](C(=O)N1CCC[C@H]1c1ncc(-c2ccc(-c3nc4ccc(NC(=O)NC(=O)[C@@H]5CCCN5C(=O)OC(C)(C)C)cc4s3)cc2)[nH]1)C(C)C` [Compound I-8, (S)-2-{3-[2-(4-{2-[(S)-1-((S)-2-Methoxycarbonylamino-3-methyl-butyryl)-pyrrolidin-2-yl]-3H-imidazol-4-yl}-phenyl)-benzothiazol-6-yl]-ureidocarbonyl}-pyrrolidine-1-carboxylic acid tert-butyl ester] registered an IC50 of 7.75 nM.

Compound `COC(=O)N[C@H](C(=O)N1CCC[C@H]1C(=O)NC(=O)Nc1ccc2nc(-c3ccc(-c4cnc([C@@H]5CCCN5C(=O)[C@@H](NC(=O)OC)C(C)C)[nH]4)cc3)sc2c1)C(C)C` [Compound I-9, [(S)-1-((S)-2-{5-[4-(6-{3-[(S)-1-((S)-2-Methoxycarbonylamino-3-methyl-butyryl)-pyrrolidine-2-carbonyl]-ureido}-benzothiazol-2-yl)-phenyl]-1H-imidazol-2-yl}-pyrrolidine-1-carbonyl)-2-methyl-propyl]-carbamic acid methyl ester] came in with an IC50 of 0.344 nM.

For the compound `COC(=O)N[C@H](C(=O)N1CCC[C@H]1c1ncc(-c2ccc(-c3ccc(NC(=O)NC(=O)[C@@H]4CCCN4C(=O)[C@H](NC(=O)OC)c4ccccc4)cn3)cc2)[nH]1)C(C)C` [Compound I-10, [(S)-1-((S)-2-{5-[4-(5-{3-[(S)-1-((R)-2-Methoxycarbonylamino-2-phenyl-acetyl)-pyrrolidine-2-carbonyl]-ureido}-pyridin-2-yl)-phenyl]-1H-imidazol-2-yl}-pyrrolidine-1-carbonyl)-2-methyl-propyl]-carbamic acid methyl ester], 0.041 nM corresponded to half-maximal inhibition (IC50).

`COC(=O)N[C@H](C(=O)N1CCC[C@H]1c1ncc(-c2ccc(-c3nc4ccc(NC(=O)NC(=O)[C@@H]5CCCN5C(=O)[C@@H](c5ccccc5)N(C)C)cc4s3)cc2)[nH]1)C(C)C` [Compound I-11, [(S)-1-((S)-2-{5-[4-(6-{3-[(S)-1-((R)-2-Dimethylamino-2-phenyl-acetyl)-pyrrolidine-2-carbonyl]-ureido}-benzothiazol-2-yl)-phenyl]-1H-imidazol-2-yl}-pyrrolidine-1-carbonyl)-2-methyl-propyl]-carbamic acid methyl ester] registered an IC50 of 0.029 nM.

Consider `COC(=O)N[C@H](C(=O)N1CCC[C@H]1C(=O)NC(=O)Nc1ccc(-c2ccc(-c3cnc([C@@H]4CCCN4C(=O)[C@@H](NC(=O)OC)C(C)C)[nH]3)cc2)cc1F)C(C)C` [Compound I-12, ((S)-1-{(S)-2-[5-(3′-Fluoro-4′-{3-[(S)-1-((S)-2-methoxycarbonylamino-3-methyl-butyryl)-pyrrolidine-2-carbonyl]-ureido}-biphenyl-4-yl)-1H-imidazol-2-yl]-pyrrolidine-1-carbonyl}-2-methyl-propyl)-carbamic acid methyl ester], for which the IC50 was 0.064 nM.
